Entries after “also recorded” stand apart in the source; their conditions may differ.
Tests used:
p32 protein = biological target: T1, p32 protein (Homo sapiens, UniProt Q07021); assay: Fluorescence polarization assay: displacement of FAM-TT1 from p32 (HTS, dose response, unlabeled peptide competition); format: binding
T1 construct: 6xHis; host or cells: Rosetta-gami-2 cells (Novagen); an E. coli strain by own knowledge
T1 sequence (Q07021 74-282): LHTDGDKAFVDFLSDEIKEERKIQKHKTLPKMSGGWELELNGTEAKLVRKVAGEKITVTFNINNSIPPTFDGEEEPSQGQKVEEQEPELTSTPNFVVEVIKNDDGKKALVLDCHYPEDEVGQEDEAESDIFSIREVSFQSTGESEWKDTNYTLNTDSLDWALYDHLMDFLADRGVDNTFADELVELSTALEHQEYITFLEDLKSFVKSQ
Description: Fluorescence polarization (FP)-based assay was used for solution-based screening of compound libraries for p32 binding compounds. […] In FP assay, peptide conjugated with a fluorescent label (fluorescein-AM, FAM) is excited with polarized light. […] 6×-His-Tagged p^32 was expressed in Rosetta-gami-2 cells (Novagen). The protein was purified by IMAC using HIS-select resin (Sigma) with an imidizole gradient from 20-300 mM and eluted fractions were analyzed on analytical SDS-PAGE. […] Fluorescence polarization is given as milli-polarization (mP) value, which is obtained from equation (1):
mP=1000*(S−P)/(S+P), (Eq. 1)
The assay was initially set up in 20 μl well volume in 384 well plate (Corning Life Sciences), and measurements were carried out using PheraStar FS plate reader (BMG LABTECH, Ortenberg, Germany) in quadruplicate. Peptide and protein stock solutions were diluted to desired concentration with assay buffer (50 mM BIS-TRIS pH 7.4, 0.05% Tween20, 1 mM DTT). FAM-labeled peptides were protected from light during the experiment to avoid photobleaching. Optimal concentration of fluorescein (FAM) labeled-peptides for the assay was determined by measuring the limit of detection (LOD), signal-to-background ratio (S/B), and stability of mP value over series of peptide concentrations. In the binding assay, the concentration of FAM-peptide was kept constant, and the FP was measured over the range of target protein concentrations. The peptide dissociation constant (KD) was obtained by fitting the binding curve into Michaelis-Menten kinetics in GraphPad Prism-software (GraphPad Software, Inc., CA, USA).
FAM-TT-1 and p32 solutions are prepared just before experiment, and stored on ice during the screen; the peptide is shielded from light. • 1. […] Dispense 1.5 μL of assay buffer (50 mM BIS-TRIS pH 7.4, 0.05% Tween 20, 1 mM DTT) into columns 1-4 • 3. […] Dispense 37.5 nL of compounds (2 mM) into columns 5-44 • 5. Spin plate • 6. Incubate 20 min • 7. Dispense 1.5 μL FAM-TT-1 peptide (20 nM) into all columns • 8. Shake plate and spin plate • 9. Incubate 25 min • 10. Read plate on PheraStar FS
Chemical library of ˜50,000 compounds from ChemBridge (San Diego, Calif.) was screened in High-Throughput Screening Facility at Conrad Prebys Center for Chemical Genomics (Sanford-Burnham Medical Research Institute, La Jolla, Calif.). […] Peptide and protein were diluted immediately prior to screening, kept on ice during screening, and FAM-peptide was protected from light throughout the experiment. […]

[1] = test system: orthotopic MCF10Ca1A breast tumors; assay: In vivo homing of iron oxide nanoworms in tumor-bearing mice; conditions: IV, 7.5 mg Fe/kg, 5-6 hours circulation
Description: FIG. 10 is a graph of nanoparticles functionalized with compound #008 homing to tumors and atherosclerotic plaques. Orthotopic MCF10Ca1Abreast tumors from mice injected with iron oxide […] (NWs) (7.5 mg/kg of Fe) coated with FAM-#008 or with an inert peptide (control). The NWs were allowed to circulate for 5 hours, the mice were perfused through the heart with PBS and tumors, and organs were collected. Quantification of fluorescence carried out with ImageJ software. Multiple sections from three tumors were analyzed (P<0.0001, Student's t-test).
Animal experimentation was performed according to the procedures approved by the Animal Research Committee at the Sanford-Burnham Medical Research Institute, San Diego. […] FAM labeled #4014008-NWs were injected into the tail vein (7.5 mg of iron per kilogram of body weight), the animals were euthanized 5-6 hours after the injection by cardiac perfusion with PBS under anesthesia, and organs were dissected and analyzed for particle homing. […]
For immunostaining, […] tissue sections were first incubated for 1 hour at room temperature with 10% serum from the species in which the secondary antibody was generated, followed by incubation with the primary antibody overnight at 4° C. […] The primary antibodies were detected with Alexa 594 goat anti-rat and 594 goat anti-rabbit secondary antibodies (1:1000; Molecular Probes). […]

atherosclerotic plaques = assay: Plaque homing of FAM-labeled #008-NWs in atherosclerotic mouse; format: in vivo; conditions: 1 mg/ml, 200 μl, IV, two hours circulation; listed as #008
plaque macrophages = assay: Cytotoxicity to plaque macrophages ex vivo; format: cell-based
Excerpt: Two of the hits from the screen passed all the specificity tests, and one of these has been characterized to some extent in vivo (FIG. 10). […] Thus, the discovered compounds, especially #008 and #7933989, served as a starting point for other compounds with affinity for p32. Orally available compounds provide significant new opportunities in prevention and treatment of atherosclerosis.

## Cc1cnccc1NCCN [Compound 4014008, N-(3-methylpyridin-4-yl)ethane-1,2-diamine]
p32 protein; high-throughput screen hits, inhibition of TT1-p32 interaction, library compounds 25 μM (Table 1), b410 says 100 μM
  inhibition at 25 µM: 29.9%
p32 protein; highest concentration used, 100 μM, read-out: inhibition of FAM-TT1 binding to p32 in FP assay
  inhibition at 100 µM: 75%
[1]
  homing to MCF10Ca1A tumors: specifically home to tumors
Atherosclerotic plaques
  nanoparticle homing/accumulation in plaques: specifically home; also recorded: directs nanoparticle accumulation in plaques
Plaque macrophages
  cytotoxicity to plaque macrophages: cytotoxic to plaque macrophages

— patent US20200268832A1, “COMPOSITIONS FOR DELIVERY TO AND TREATMENT OF ATHEROSCLEROTIC PLAQUES” (Sanford Burnham Prebys Medical Discovery Institute, priority 2015, published 2020)
